Assay results published in patent publication US20050009052A1 (priority 2003, published 2005).

How the values were obtained:
pac10Δ/pac10Δ strain [1] = format: cell-based, Saccharomyces cerevisiae; details: pac10Δ/pac10Δ grown individually, YPD, 30° C.; staurosporine 1 μM, caffeine 8 mM, latrunculin B 2 μg/ml
rlm1Δ/rlm1Δ strain [2] = experiment: Growth of individually cultured yeast strain with inhibitor (O.D.600); format: cell-based, Saccharomyces cerevisiae; details: rlm1Δ/rlm1Δ grown individually, YPD, 30° C.; staurosporine 1 μM, caffeine 8 mM, tunicamycin 0.4 μg/ml
act1Δ/ACT1 strain = experiment: Differential Tag Length Analysis (DTLA) of 11-strain mixed yeast culture with inhibitor; format: cell-based, Saccharomyces cerevisiae; details: 20 hours
Method: (§1) Strains, media and inhibitors.
(§2) Tag amplification and capillary electrophoresis. Oligonucleotides Fluor-1 (6-Fam-[…]) and Pho-1 (Phosphate-[…]) were used for the amplification of tag DNAs. PCR reactions were performed in 50 μl reaction volume containing the 2 primers at a final concentration of 1 μM each and 2.5 units of Stoffel fragment AmpliTaq DNA polymerase (Applied Biosystems, Foster City, Calif.). After an initial 2 min denaturing step at 94° C., the reactions underwent 30 amplification cycles (94° C., 30 sec; 60° C., 30 sec; 72° C., 30 sec with a 6 sec increase in extension time per cycle) followed by a post-amplification extension step (72° C., 10 min). As a template for the PCR reactions, 100 ng of plasmid DNA, 700 ng of genomic DNA (extracted from yeast strains using MasterPure Yeast DNA purification kit; Epicentre, Madison, Wis.), or an equivalent to 0.5 μl of saturated culture of yeast protoplasts (prepared by using lyticase) (see, e.g., Chen et al., Biotechniques 19:744-746 (1995)) was used. The PCR products were incubated with λ-exonuclease for 1 h at 37° C. and then purified using MinElute PCR purification kit (QIAGEN Inc., Valencia, Calif.). After 1 h digestion with EcoRI, the PCR products were again purified with the same kit and adjusted to 70% formamide and 1 mM EDTA and analyzed by capillary electrophoresis on ABI Prism 3700 DNA analyzer (Applied Biosystems, Foster City, Calif.) using 3700 POP-5 polymer.
(§3) Data analysis. To access the raw fluorescence data collected by ABI Prism 3700 DNA analyzer, a Visual Basic program was used that extracted the electropherogram values and converted them into a text file format. Peak quantitation was then performed using Caesar Workstation 5.0 (SciBridge Software, Los Angeles, Calif.). In the majority of cases, the relative representation of each tag in the PCR product was calculated by dividing the area under the corresponding tag peak by the sum of all tag peak areas. For the measurement of different input amounts of tag 42, the average peak area of the other 10 tags was first calculated. The area value of tag 42 was then divided by this averaged value to give normalized tag 42 area.

bro1Δ/bro1Δ strain [3] = experiment: as above; format: cell-based, Saccharomyces cerevisiae; details: 20 hours; for increase of strain representation in the mixture: staurosporine 1 μM, latrunculin B 2 μg/ml
Method: as §1, §2, §3

gim4Δ/gim4Δ strain [4] = experiment: as above; format: cell-based, Saccharomyces cerevisiae
Method: as §1, §2, §3

pde2Δ/pde2Δ strain [5] = experiment: as above; format: cell-based, Saccharomyces cerevisiae; details: 20 hours
Method: as §1, §2, §3

pkc1Δ/PKC1 strain = experiment: as above; format: cell-based, Saccharomyces cerevisiae; details: 20 hours, caffeine 8 mM
Method: as §1, §2, §3

rlm1Δ/rlm1Δ strain [6] = experiment: as above; format: cell-based, Saccharomyces cerevisiae; details: 20 hours
Method: as §1, §2, §3

bro1Δ/bro1Δ strain [7] = details: bro1Δ/bro1Δ grown individually, YPD, 30° C.; staurosporine 1 μM, caffeine 8 mM
pdr5Δ/pdr5Δ strain [8] = format: cell-based, Saccharomyces cerevisiae; details: pdr5Δ/pdr5Δ grown individually, YPD, 30° C.; staurosporine 1 μM, latrunculin B 2 μg/ml
gim4Δ/gim4Δ strain [9] = format: cell-based, Saccharomyces cerevisiae; details: gim4Δ/gim4Δ grown individually, YPD, 30° C.; staurosporine 1 μM, latrunculin B 2 μg/ml
pde2Δ/pde2Δ strain [10] = experiment: Growth of individually cultured yeast strain with inhibitor (O.D.600); format: cell-based, Saccharomyces cerevisiae; details: pde2Δ/pde2Δ grown individually, YPD, 30° C.; staurosporine 1 μM, latrunculin B 2 μg/ml
ACT1/act1Δ strain = format: cell-based, Saccharomyces cerevisiae; details: ACT1/act1Δ grown individually, YPD, 30° C.; staurosporine 1 μM, latrunculin B 2 μg/ml
pac10Δ/pac10Δ strain [11] = format: cell-based, Saccharomyces cerevisiae; details: pac10Δ/pac10Δ in mixed culture, 20 hours
pdr5Δ/pdr5Δ strain [12] = experiment: Differential Tag Length Analysis (DTLA) of 11-strain mixed yeast culture with inhibitor; format: cell-based, Saccharomyces cerevisiae; details: pdr5Δ/pdr5Δ in mixed culture, 20 hours; latrunculin B 2 μg/ml
Method: as §1, §2, §3

alg7Δ/ALG7 strain [13] = format: cell-based, Saccharomyces cerevisiae; details: alg7Δ/ALG7 grown individually, YPD, 30° C.; staurosporine 1 μM, tunicamycin 0.4 μg/ml
alg7Δ/ALG7 strain [14] = experiment: Differential Tag Length Analysis (DTLA) of 11-strain mixed yeast culture with inhibitor; format: cell-based, Saccharomyces cerevisiae; details: alg7Δ/ALG7 in mixed culture, 20 hours; tunicamycin 0.4 μg/ml
Method: as §1, §2, §3

Cn1c(=O)c2c(ncn2C)n(C)c1=O [caffeine]
sensitivity of growth to inhibitor (pac10Δ/pac10Δ strain [1]): sensitive | sensitivity of growth to inhibitor (rlm1Δ/rlm1Δ strain [2]): sensitive | effect on growth of strain in mixed culture (act1Δ/ACT1 strain; caffeine 8 mM): decreased growth | effect on growth of strain in mixed culture (bro1Δ/bro1Δ strain [3]; caffeine 8 mM): decreased growth | effect on growth of strain in mixed culture (gim4Δ/gim4Δ strain [4]; caffeine 8 mM): exhibited sensitivity in the mixture | effect on growth of strain in mixed culture (pde2Δ/pde2Δ strain [5]; caffeine 8 mM): decreased growth | increase of strain representation in the mixture (pkc1Δ/PKC1 strain): 97% | effect on growth of strain in mixed culture (rlm1Δ/rlm1Δ strain [6]; caffeine 8 mM): decreased growth | sensitivity of growth to inhibitor (bro1Δ/bro1Δ strain [7]): sensitive

C/C1=C/C(=O)O[C@@H]2C[C@@H](CC[C@H](C)/C=C\CC1)O[C@@](O)([C@@H]1CSC(=O)N1)C2 [latrunculin B]
sensitivity of growth to inhibitor (pdr5Δ/pdr5Δ strain [8]): inhibited the growth | sensitivity of growth to inhibitor (pac10Δ/pac10Δ strain [1]): inhibited the growth | sensitivity of growth to inhibitor (gim4Δ/gim4Δ strain [9]): inhibited the growth | sensitivity of growth to inhibitor (pde2Δ/pde2Δ strain [10]): inhibited the growth | sensitivity of growth to inhibitor (ACT1/act1Δ strain): inhibited the growth | strain representation compared with the non-treated culture (reduced to) (pac10Δ/pac10Δ strain [11]; latrunculin B 2 μg/ml): less than 50% | strain representation compared with the non-treated culture (reduced to) (act1Δ/ACT1 strain; act1Δ/ACT1 in mixed culture, latrunculin B 2 μg/ml): less than 50% | increase of strain representation in the mixture (bro1Δ/bro1Δ strain [3]): 123% | strain representation compared with the non-treated culture (reduced to) (gim4Δ/gim4Δ strain [4]; gim4Δ/gim4Δ in mixed culture, 20 hours, latrunculin B 2 μg/ml): less than 50% | strain representation compared with the non-treated culture (reduced to) (pde2Δ/pde2Δ strain [5]; pde2Δ/pde2Δ in mixed culture, latrunculin B 2 μg/ml): less than 50% | strain representation compared with the non-treated culture (reduced to) (pdr5Δ/pdr5Δ strain [12]): less than 50%

CN[C@@H]1C[C@H]2O[C@@](C)([C@@H]1OC)n1c3ccccc3c3c4c(c5c6ccccc6n2c5c31)C(=O)NC4 [staurosporine]
increase of strain representation in the mixture (bro1Δ/bro1Δ strain [3]): 340% | increase of strain representation in the mixture (pde2Δ/pde2Δ strain [5]; staurosporine 1 μM): 200%

tunicamycin
sensitivity of growth to inhibitor (alg7Δ/ALG7 strain [13]): slowed the growth | sensitivity of growth to inhibitor (rlm1Δ/rlm1Δ strain [2]): slowed the growth | increase of strain representation in the mixture (pac10Δ/pac10Δ strain [11]; tunicamycin 0.4 μg/ml): 82% | reduction of strain relative to the non-treated culture (alg7Δ/ALG7 strain [14]): 83% | decrease/reduction of strain relative to the non-treated culture (rlm1Δ/rlm1Δ strain [6]; rlm1Δ/rlm1Δ in mixed culture, staurosporine 1 μM, tunicamycin 0.4 μg/ml): 59%
